# Results reported in BindingDB's records for doi:10.1016/j.bioorg.2017.01.017 (University of The Punjab, 2017).
# Biological target: Alpha-glucosidase MAL12 (Saccharomyces cerevisiae (strain ATCC 204508 / S288c), UniProt P53341)
# Experiment: α-Glucosidase Inhibition Assay
# Protocol: Afterwards, 10 μL of 0.5 mM p-nitrophenyl-a-d-glucopyranoside (code No. N1377 fromSigma Inc) was added to instigate the reaction. Later 30 min incubation at 37 °C, yellow coloured p-nitrophenol was formed and the absorbance was again recorded at 400 nm to see the difference. These tests were performed in triplicates and suitable dilutions of samples were made for screening.
# Alpha-glucosidase MAL12, sequence (P53341 whole entry): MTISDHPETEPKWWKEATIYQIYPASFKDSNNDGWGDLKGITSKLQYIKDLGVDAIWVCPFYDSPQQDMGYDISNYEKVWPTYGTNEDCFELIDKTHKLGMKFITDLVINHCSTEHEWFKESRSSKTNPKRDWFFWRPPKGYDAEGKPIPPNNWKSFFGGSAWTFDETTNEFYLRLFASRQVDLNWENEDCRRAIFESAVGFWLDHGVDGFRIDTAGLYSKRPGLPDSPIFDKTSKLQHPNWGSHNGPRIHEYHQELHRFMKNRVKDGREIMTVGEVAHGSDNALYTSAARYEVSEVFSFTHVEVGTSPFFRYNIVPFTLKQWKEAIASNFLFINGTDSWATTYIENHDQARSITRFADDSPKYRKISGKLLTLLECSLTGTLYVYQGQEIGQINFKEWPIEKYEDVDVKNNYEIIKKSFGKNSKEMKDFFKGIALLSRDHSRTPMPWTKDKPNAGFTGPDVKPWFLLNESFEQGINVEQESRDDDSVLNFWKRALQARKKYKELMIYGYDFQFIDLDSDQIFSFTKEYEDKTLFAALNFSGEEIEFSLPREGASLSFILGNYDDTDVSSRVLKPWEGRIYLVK
row,Compound,IC50 [µM]
1,"O=c1oc2ccccc2cc1-c1nn(-c2ccccc2)cc1-c1nc(-c2ccccc2)c(-c2ccccc2)[nH]1 [3-(4-(4,5-diphenyl-1H-imidazol-2-yl)-1-phenyl-1H-pyrazol-3-yl)-2H-chromen-2-one (2j)]",2.78
2,"Brc1ccc(-c2nn(-c3ccccc3)cc2-c2nc(-c3ccccc3)c(-c3ccccc3)[nH]2)cc1 [3-(4-Bromophenyl)-4-(4,5-diphenyl-1H-imidazol-2-yl)-1-phenyl-1H-pyrazole (2c)]",12
3,"c1ccc(-c2ccc(-c3nn(-c4ccccc4)cc3-c3nc(-c4ccccc4)c(-c4ccccc4)[nH]3)cc2)cc1 [3-([1,1'-Biphenyl]-4-yl)-4-(4,5-diphenyl-1H-imidazol-2-yl)-1-phenyl-1H-pyrazole (2g)]",17.5
4,"COc1ccc(-c2nn(-c3ccccc3)cc2-c2nc(-c3ccccc3)c(-c3ccccc3)[nH]2)cc1 [4-(4,5-Diphenyl-1H-imidazol-2-yl)-3-(4-methoxyphenyl)-1-phenyl-1H-pyrazole (2e)]",24
5,"O=c1oc2ccc(Br)cc2cc1-c1nn(-c2ccccc2)cc1-c1nc(-c2ccccc2)c(-c2ccccc2)[nH]1 [6-Bromo-3-(4-(4,5-diphenyl-1H-imidazol-2-yl)-1-phenyl-1Hpyrazol-3-yl)-2H-chromen 2-one (2k)]",2.95

# Continued by falling IC50, values first:
row,IC50 [µM],Compound
1,22.2,"c1ccc(-c2nn(-c3ccccc3)cc2-c2nc(-c3ccccc3)c(-c3ccccc3)[nH]2)cc1 [4-(4,5-Diphenyl-1H-imidazol-2-yl)-1,3-diphenyl-1H-pyrazole (2a)]"
2,22,"Cc1nn(-c2ccc([N+](=O)[O-])cc2)c(C)c1-c1nc(-c2ccccc2)c(-c2ccccc2)[nH]1 [4-(4,5-Diphenyl-1H-imidazol-2-yl)-3,5-dimethyl-1-(4-nitrophenyl)-1H-pyrazole (2i)]"
3,20.7,"O=[N+]([O-])c1ccc(-c2nn(-c3ccccc3)cc2-c2nc(-c3ccccc3)c(-c3ccccc3)[nH]2)cc1 [4-(4,5-Diphenyl-1H-imidazol-2-yl)-3-(4-nitrophenyl)-1-phenyl-1H-pyrazole (2d)]"
4,13.2,"Clc1ccc(-c2nn(-c3ccccc3)cc2-c2nc(-c3ccccc3)c(-c3ccccc3)[nH]2)cc1 [3-(4-Chlorophenyl)-4-(4,5-diphenyl-1H-imidazol-2-yl)-1-phenyl-1H-pyrazole (2b)]"
5,12.8,"O=[N+]([O-])c1cccc(-c2nn(-c3ccccc3)cc2-c2nc(-c3ccccc3)c(-c3ccccc3)[nH]2)c1 [4-(4,5-Diphenyl-1H-imidazol-2-yl)-3-(3-nitrophenyl)-1-phenyl-1H-pyrazole (2f)]"
6,7.81,"O=[N+]([O-])c1ccc(-n2cc(-c3nc(-c4ccccc4)c(-c4ccccc4)[nH]3)c(-c3ccccc3)n2)cc1 [4-(4,5-Diphenyl-1H-imidazol-2-yl)-1-(4-nitrophenyl)-3-phenyl-1H-pyrazole (2h)]"
